Source: PMC3747596 (PLoS ONE, 2013)
pEC50, pKi: −log10 of the molar value. Where two headings read alike, the source gives them in different places.

Columns and labels:
[1] = biological target: T1, α1A-adrenoceptor (α1A-AR) (Homo sapiens, UniProt P35348); assay: Radioligand displacement, α1A; type: binding
T1 sequence (P35348 1-466): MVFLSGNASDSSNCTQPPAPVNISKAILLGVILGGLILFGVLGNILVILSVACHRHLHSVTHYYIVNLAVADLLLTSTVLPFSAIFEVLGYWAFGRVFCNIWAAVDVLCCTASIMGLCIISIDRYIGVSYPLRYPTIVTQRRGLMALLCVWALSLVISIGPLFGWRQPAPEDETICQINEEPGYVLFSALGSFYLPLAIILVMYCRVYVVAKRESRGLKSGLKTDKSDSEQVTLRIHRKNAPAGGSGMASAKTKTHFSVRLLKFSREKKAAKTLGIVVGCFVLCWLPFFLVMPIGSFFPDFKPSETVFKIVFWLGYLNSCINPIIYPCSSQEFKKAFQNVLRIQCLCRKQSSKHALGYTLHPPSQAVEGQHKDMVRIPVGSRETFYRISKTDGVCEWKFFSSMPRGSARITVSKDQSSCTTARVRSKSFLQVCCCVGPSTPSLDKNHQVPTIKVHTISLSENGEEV

μ opioid receptor = biological target: T2, μ opioid receptor (Homo sapiens, UniProt P35372); assay: Radioligand displacement, μ; type: binding
T2 construct: expressed in transfected cells

D5 = D5 (Homo sapiens, UniProt P21918); assay: Radioligand displacement, D5; type: binding
D5, sequence (P21918 whole entry): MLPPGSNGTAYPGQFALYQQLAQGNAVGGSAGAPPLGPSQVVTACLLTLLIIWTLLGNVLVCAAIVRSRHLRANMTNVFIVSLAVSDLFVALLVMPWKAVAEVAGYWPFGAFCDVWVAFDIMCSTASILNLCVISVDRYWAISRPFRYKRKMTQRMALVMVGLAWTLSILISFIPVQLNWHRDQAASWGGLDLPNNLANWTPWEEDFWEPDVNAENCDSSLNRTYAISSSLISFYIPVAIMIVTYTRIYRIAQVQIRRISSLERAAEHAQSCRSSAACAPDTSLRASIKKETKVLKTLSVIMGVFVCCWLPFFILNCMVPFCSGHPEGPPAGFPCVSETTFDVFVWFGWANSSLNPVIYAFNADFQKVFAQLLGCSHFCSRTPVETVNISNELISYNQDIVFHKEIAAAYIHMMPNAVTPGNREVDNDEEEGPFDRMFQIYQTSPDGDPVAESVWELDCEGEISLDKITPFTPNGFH

5-HT2a = 5-HT2a (Homo sapiens, UniProt P28223); assay: Radioligand displacement, 5-HT2a; type: binding
M5 = M5 (Homo sapiens, UniProt P08912); assay: Radioligand displacement, M5; type: binding
M5, sequence (P08912 whole entry): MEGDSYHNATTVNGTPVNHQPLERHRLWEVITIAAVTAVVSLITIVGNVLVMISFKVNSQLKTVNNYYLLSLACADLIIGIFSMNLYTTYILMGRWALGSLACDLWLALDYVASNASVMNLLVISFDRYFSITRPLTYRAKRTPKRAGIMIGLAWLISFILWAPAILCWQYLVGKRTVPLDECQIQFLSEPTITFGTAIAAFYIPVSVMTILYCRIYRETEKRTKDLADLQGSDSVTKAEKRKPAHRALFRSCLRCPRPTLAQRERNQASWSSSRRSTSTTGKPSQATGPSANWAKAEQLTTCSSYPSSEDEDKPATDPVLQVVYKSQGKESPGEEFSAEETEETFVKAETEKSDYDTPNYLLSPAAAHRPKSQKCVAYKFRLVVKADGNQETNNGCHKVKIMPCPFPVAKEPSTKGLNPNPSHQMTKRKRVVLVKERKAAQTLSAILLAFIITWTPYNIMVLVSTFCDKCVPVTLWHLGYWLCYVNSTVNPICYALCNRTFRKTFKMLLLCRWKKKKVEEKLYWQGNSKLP

[2] = system: human permeability glycoprotein (P-gp); details: cited from earlier work
5-HT7 = 5-HT7 (Homo sapiens, UniProt P34969); assay: Radioligand displacement, 5-HT7; type: binding
H1 = H1 (Homo sapiens, UniProt P35367); assay: Radioligand displacement, H1; type: binding
H1, sequence (P35367 whole entry): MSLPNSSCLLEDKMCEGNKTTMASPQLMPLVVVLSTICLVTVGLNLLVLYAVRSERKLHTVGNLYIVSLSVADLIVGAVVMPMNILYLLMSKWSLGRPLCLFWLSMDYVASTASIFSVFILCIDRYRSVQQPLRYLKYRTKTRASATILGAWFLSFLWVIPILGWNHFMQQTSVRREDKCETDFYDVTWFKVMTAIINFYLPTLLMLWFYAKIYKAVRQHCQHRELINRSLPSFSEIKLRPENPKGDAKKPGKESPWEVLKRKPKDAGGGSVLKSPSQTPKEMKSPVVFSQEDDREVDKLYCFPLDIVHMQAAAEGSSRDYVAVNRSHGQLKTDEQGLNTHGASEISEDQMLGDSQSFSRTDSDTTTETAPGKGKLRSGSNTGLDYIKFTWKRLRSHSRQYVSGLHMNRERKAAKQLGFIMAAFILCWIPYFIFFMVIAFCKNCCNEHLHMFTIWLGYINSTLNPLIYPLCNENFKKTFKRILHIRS

GABAA = assay: Radioligand displacement, GABAA; type: binding; details: [3H] radioligand Muscimol; Rat, forebrain
[3] = Caco-2 cell monolayer permeation; details: human, Caco-2, pH 7.4
σ2 = biological target: T3, σ2 (Rattus norvegicus, UniProt Q5U3Y7); assay: Radioligand displacement, σ2; type: binding
T3 sequence (Q5U3Y7 1-176): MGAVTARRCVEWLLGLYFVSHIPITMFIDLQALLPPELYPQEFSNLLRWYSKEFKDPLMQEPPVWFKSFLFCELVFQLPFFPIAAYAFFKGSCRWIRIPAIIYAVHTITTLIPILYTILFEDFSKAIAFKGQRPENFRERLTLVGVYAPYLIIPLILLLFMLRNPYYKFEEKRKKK

δ opioid receptor = biological target: T4, δ opioid receptor (Homo sapiens, UniProt P41143); assay: Radioligand displacement, δ; type: binding; details: K i, radioligand displacement (Table 1)
T4 construct: expressed in transfected cells

α1A-AR = biological target: T5, α1A-AR (Homo sapiens, UniProt P35348); assay: Intracellular calcium mobilization assay, α1A-AR
T5 sequence (P35348 1-466): T1 sequence (P35348 1-466)

GABAA (BZP) = assay: Radioligand displacement, GABAA (BZP); type: binding; details: [3H] radioligand Flunitrazepam; Rat, Brain
β3 = β3 (Homo sapiens, UniProt P13945); assay: Radioligand displacement, β3; type: binding
β3, sequence (P13945 whole entry): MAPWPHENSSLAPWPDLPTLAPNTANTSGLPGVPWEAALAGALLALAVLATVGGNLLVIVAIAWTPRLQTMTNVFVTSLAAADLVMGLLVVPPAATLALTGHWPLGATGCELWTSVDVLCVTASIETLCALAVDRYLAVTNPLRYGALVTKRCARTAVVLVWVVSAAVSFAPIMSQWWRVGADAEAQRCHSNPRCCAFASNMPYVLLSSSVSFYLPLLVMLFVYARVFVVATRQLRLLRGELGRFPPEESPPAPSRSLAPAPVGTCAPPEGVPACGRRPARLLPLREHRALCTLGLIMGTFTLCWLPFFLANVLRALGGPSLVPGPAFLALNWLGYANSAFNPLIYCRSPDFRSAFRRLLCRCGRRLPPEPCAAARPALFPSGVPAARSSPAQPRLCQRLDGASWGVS

M1-R = M1-R (Homo sapiens, UniProt P11229); set-up: method as in ref 9 = [9]; 9 Inan S (2010) Pharmacological and neuroanatomical analysis of GNTI-induced repetitive behavior in mice [Ph.D. thesis Thesis]. Philadelphia, PA: Temple University. Available: http://digital.library.t; details: at 1 µM; [3H]N-methylscopolamine; cited from earlier work
M1-R, sequence (P11229 whole entry): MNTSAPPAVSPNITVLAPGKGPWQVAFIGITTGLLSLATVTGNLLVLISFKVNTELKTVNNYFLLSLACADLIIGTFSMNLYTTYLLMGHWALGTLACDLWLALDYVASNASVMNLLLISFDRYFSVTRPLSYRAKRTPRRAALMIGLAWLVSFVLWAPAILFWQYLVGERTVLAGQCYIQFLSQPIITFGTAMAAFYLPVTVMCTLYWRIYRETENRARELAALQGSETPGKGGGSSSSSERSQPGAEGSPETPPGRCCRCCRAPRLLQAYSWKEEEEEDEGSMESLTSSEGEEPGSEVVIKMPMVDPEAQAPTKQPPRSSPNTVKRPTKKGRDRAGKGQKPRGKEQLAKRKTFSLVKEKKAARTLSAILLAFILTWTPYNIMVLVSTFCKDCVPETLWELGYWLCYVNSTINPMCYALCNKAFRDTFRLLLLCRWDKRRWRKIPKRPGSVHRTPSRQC

5-HT2b = 5-HT2b (Homo sapiens, UniProt P41595); assay: Radioligand displacement, 5-HT2b; type: binding
DAT = DAT (Homo sapiens, UniProt Q01959); assay: Radioligand displacement, DAT
H2 = H2 (Homo sapiens, UniProt P25021); assay: Radioligand displacement, H2
H2, sequence (P25021 whole entry): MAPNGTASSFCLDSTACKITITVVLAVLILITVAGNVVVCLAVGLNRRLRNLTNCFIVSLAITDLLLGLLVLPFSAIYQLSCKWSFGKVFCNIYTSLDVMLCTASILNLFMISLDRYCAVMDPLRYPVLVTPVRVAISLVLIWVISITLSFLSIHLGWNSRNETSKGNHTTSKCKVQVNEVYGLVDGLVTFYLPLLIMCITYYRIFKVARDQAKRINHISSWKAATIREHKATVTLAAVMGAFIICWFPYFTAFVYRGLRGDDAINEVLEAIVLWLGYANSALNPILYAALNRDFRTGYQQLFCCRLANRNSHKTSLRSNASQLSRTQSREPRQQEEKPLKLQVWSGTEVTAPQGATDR

5-HT1d = 5-HT1d (Homo sapiens, UniProt P28221); assay: Radioligand displacement, 5-HT1d
5-HT1d, sequence (P28221 whole entry): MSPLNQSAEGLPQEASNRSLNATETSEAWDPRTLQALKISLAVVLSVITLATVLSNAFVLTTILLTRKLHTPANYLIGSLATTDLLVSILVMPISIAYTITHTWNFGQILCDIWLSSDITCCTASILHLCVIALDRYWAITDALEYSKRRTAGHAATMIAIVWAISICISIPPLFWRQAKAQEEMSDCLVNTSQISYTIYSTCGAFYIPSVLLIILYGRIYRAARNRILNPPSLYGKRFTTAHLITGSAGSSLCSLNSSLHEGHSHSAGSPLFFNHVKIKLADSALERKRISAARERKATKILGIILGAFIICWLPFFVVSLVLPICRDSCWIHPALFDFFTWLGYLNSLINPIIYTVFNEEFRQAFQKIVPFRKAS

SERT = SERT (Homo sapiens, UniProt P31645); assay: Radioligand displacement, SERT; type: binding
[4] = biological target: M1 muscarinic receptors (M1-R) (Homo sapiens, UniProt P11229); assay: Radioligand displacement, M1; type: binding
M1 muscarinic receptors (M1-R), sequence (P11229 whole entry): as the sequence (P11229 whole entry) above

β2 = β2 (Homo sapiens, UniProt P07550); assay: Radioligand displacement, β2; type: binding
β2, sequence (P07550 whole entry): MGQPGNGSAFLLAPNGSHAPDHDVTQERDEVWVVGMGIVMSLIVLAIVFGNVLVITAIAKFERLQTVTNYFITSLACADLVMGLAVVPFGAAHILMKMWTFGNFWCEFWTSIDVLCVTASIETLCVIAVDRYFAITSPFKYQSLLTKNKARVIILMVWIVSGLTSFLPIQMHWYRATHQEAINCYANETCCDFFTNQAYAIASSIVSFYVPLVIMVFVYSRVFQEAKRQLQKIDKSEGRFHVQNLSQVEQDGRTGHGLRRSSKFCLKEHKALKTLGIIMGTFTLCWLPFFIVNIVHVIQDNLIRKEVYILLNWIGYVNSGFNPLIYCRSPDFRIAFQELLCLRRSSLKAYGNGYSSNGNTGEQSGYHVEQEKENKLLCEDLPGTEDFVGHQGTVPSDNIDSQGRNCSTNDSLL

M3 = M3 (Homo sapiens, UniProt P20309); assay: Radioligand displacement, M3; type: binding
M3, sequence (P20309 whole entry): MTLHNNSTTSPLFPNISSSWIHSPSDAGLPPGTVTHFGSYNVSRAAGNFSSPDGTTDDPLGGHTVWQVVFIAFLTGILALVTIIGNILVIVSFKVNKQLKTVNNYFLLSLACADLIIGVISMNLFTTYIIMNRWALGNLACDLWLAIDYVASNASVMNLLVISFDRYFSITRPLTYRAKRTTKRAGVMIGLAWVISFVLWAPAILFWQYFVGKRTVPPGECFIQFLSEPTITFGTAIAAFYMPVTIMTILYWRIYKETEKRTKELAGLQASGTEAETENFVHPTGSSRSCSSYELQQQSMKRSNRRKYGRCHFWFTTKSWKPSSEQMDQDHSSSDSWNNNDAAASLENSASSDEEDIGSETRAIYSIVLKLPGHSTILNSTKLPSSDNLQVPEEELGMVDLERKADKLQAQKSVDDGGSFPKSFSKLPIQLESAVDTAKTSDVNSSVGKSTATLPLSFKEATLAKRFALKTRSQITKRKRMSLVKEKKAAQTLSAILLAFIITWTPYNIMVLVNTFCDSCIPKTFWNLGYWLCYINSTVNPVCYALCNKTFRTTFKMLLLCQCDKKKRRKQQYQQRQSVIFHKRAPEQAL

5-HT6 = 5-HT6 (Homo sapiens, UniProt P50406); assay: Radioligand displacement, 5-HT6; type: binding
5-HT6, sequence (P50406 whole entry): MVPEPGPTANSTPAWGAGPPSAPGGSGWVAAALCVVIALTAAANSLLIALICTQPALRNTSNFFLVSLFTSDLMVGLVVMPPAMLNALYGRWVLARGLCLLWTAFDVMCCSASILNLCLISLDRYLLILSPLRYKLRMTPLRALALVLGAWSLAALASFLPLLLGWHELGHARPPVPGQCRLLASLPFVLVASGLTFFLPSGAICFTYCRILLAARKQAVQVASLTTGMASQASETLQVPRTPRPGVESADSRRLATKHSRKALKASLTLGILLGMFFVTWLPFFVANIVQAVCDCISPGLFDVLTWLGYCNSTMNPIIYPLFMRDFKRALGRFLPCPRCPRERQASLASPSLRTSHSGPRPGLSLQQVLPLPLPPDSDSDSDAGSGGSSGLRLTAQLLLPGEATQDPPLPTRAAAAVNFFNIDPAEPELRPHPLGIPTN

human NOP [5] = biological target: T6, human NOP (Homo sapiens, UniProt P41146); assay: NOP binding against [3H]N/OFQ, HEK293T membranes
T6 construct: expressed in transfected cells; host or cells: HEK293T
T6 sequence (P41146 whole entry): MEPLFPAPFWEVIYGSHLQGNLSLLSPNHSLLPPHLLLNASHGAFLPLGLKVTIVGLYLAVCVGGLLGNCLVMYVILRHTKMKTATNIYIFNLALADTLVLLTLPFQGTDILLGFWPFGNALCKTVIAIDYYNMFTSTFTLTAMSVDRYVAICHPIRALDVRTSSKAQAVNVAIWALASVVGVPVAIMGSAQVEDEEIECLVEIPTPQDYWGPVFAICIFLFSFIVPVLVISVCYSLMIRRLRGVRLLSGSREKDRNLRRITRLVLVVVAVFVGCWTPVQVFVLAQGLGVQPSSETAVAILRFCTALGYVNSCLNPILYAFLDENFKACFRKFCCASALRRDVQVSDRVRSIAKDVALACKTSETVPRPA

human NOP [6] = biological target: T6, human NOP; assay: Inhibition of cyclic AMP production by N/OFQ, GloSensor assay in HEK293T cells; type: cell-based
[7] = system: nociceptin/orphanin FQ receptor (NOP); set-up: method as in PMID 11510482; details: at 10 µM; cited from earlier work
[8] = system: glucocorticoid receptor NR3C1; set-up: method as in PMID 10875228; details: at 10 µM; cited from earlier work
[9] = Ki, [3H] radioligand Prazosin, Human, Cloned
[10] = K i, D5, radioligand displacement (Table 1)
[11] = Ki, [3H] radioligand SCH23390, Human, Cloned
[12] = Ki, [3H] radioligand GR125743, Human, Cloned
[13] = [3H] radioligand QNB, Human, Cloned, read-out: Ki
[14] = [3H] radioligand LSD, Human, Cloned, read-out: Ki
[15] = [3H] radioligand CGP12177, Human, Cloned, read-out: Ki

In the case of N=C(N)Nc1ccc2[nH]c3c(c2c1)C[C@@]1(O)[C@H]2Cc4ccc(O)c5c4[C@@]1(CCN2CC1CC1)[C@H]3O5 [GNTI, 5′-guanidinonaltrindole], the “modulation of the displacement of [125I]HEAT by noradrenaline” value ([1]; 10 µM GNTI) was “did not detectably modulate”, the pKi [1, 9] was 5.02 and the pKi ([1]; Ki, binding curve File S1, Alpha1A Receptor, [125I]HEAT (0.03 nM), for 14674 the curve marked old) was 5.02. It also gave a pKi (μ opioid receptor) of 7.27, a pKi (D5; [10]) of 5.09 and a pKi (D5; [11]) of 5.09. For the same compound, the pKi (5-HT2a) was at most 5.00, the pKi (M5) was at most 5.00 and the “substrate of human P-gp” value [2] was “not substrates”. For the same compound, the pKi (5-HT7) was at most 5.00, the pKi (H1) was at most 5.00 and the pKi (GABAA) was at most 5.00. The Papp A→B at 120 min [3] was 88 ×10⁻⁶ cm/s, the Papp B→A at 120 min [3] was 270 ×10⁻⁶ cm/s and the efflux ratio at 120 min [3] was 3.1. The pKi (σ2) was at most 5.00, the pKi (δ opioid receptor) was 7.24 and the pEC50 (α1A-AR) was 7.39. For the same compound, the “activation of α1A-AR / inhibition of activation by noradrenaline” value (α1A-AR; calcium mobilization, GNTI 30 µM) was “neither activated α1A-AR nor inhibited activation by noradrenaline”, the Emax (α1A-AR; read-out: increase of the maximal response to noradrenaline) was at most 20% and the pKi (GABAA (BZP)) was at most 5.00. For the same compound, the pKi (β3) was at most 5.00, the “displacement from M1-R” value (M1-R) was 52% and the pKi (5-HT2b) was at most 5.00. For the same compound, the pKi (DAT) was at most 5.00, the pKi (H2) was at most 5.00 and the pKi (5-HT1d; [12]) was at most 5.00. The pKi (SERT) was at most 5.00, the pKi [4] was at most 5.00 and the “displacement from M1-R” value ([4]; at 10 µM, [3H]3-quinuclidinyl benzilate (QNB)) was 49%. The pKi (β2) was at most 5.00, the pKi (M3) was at most 5.00 and the pKi (5-HT6) was at most 5.00. For the same compound, the pKi (human NOP [5]) was 5.60.
For CC(C)[C@@H](CN1CC[C@@](C)(c2cccc(O)c2)[C@@H](C)C1)NC(=O)[C@H]1Cc2ccc(O)cc2CN1 [JDTic], the pKi ([1]; read-out: Ki) was at most 5.00, the pKi (D5; [3H] radioligand SCH23390, Human, Cloned, read-out: Ki) was at most 5.00 and the pKi (5-HT2a; [3H] radioligand Ketanserin, Human, Cloned, read-out: Ki) was at most 5.00. For the same compound, the pKi (M5; [13]) was at most 5.00, the pKi (5-HT7; [14]) was at most 5.00 and the pKi (H1; [3H] radioligand Pyrilamine, Human, Cloned, read-out: Ki) was at most 5.00. It also gave a pKi (GABAA) of at most 5.00, a Papp A→B at 120 min [3] of 60 ×10⁻⁶ cm/s and a Papp B→A at 120 min [3] of 310 ×10⁻⁶ cm/s. The pKi (σ2; [3H] radioligand DTG, Rat, PC12, read-out: Ki) was at most 5.00, the pKi (GABAA (BZP)) was at most 5.00 and the pKi (β3; [15]) was at most 5.00. It also gave a pKi (5-HT2b; [14]) of at most 5.00, a pKi (DAT; K i, DAT, radioligand displacement (Table 1)) of 5.36 and a pKi (DAT; Ki, [3H] radioligand WIN35428, Human, Cloned) of 5.36. It also gave a pKi (DAT; Ki, binding curve File S1, Dopamine Transporter, [3H]WIN35428 (3 nM), Transporter Binding Buffer) of 5.36, a pKi (H2; K i, H2, radioligand displacement (Table 1)) of 5.74 and a pKi (H2; Ki, [3H] radioligand Tiotidine, Human, Cloned) of 5.75. The pKi (H2; Ki, binding curve File S1, H2 Receptor, [3H]Tiotidine (3 nM), Histamine Binding Buffer) was 5.75, the “K B equivalent to the pA2 for a competitive antagonist” value (human NOP [6]; 95% CI = 4.6 to 1,200 nM) was 73 nM and the “effect on maximally-effective concentrations of N/OFQ (>100 nM)” value (human NOP [6]; JDTic 30 µM) was “not affected”. For the same compound, the Kb (human NOP [6]; antagonism of N/OFQ, inhibition of cyclic AMP production, read-out: pA2 (converted)) was 0.0794 µM, the pKi (5-HT1d) was at most 5.00 and the pKi (SERT; [3H] radioligand Citalopram, Human, Cloned, read-out: Ki) was at most 5.00. The pKi [4, 13] was at most 5.00, the pKi (β2; [15]) was at most 5.00 and the pKi (M3; [13]) was at most 5.00. For the same compound, the pKi (5-HT6; [14]) was at most 5.00 and the pKi (human NOP [5]; NOP, displacing [3H]N/OFQ (Table 1), read-out: K i) was 7.92.
Compound Oc1ccc2c3c1O[C@H]1c4[nH]c5c(c4C[C@@]4(O)[C@@H](C2)N(CC2CC2)CC[C@]314)C[C@@]1(O)[C@H]2Cc3ccc(O)c4c3[C@@]1(CCN2CC1CC1)[C@H]5O4 [nor-BNI, Nor-binaltorphimine] has a pKi [1, 9] of at most 5.00, a pKi (D5; [10]) of 5.41 and a pKi (D5; [11]) of 5.41. For the same compound, the pKi (D5; Ki, binding curve File S1, Dopamine5 Receptor, [3H]SCH23390 (1.2 nM), Dopamine Binding Buffer) was 5.41, the pKi (5-HT2a) was at most 5.00 and the pKi (M5) was at most 5.00. For the same compound, the “binding to NOP” value [7] was “no binding”, the “substrate of human P-gp” value [2] was “not substrates” and the pKi (5-HT7) was at most 5.00. For the same compound, the pKi (H1) was at most 5.00, the pKi (GABAA) was at most 5.00 and the Papp A→B at 120 min [3] was 51 ×10⁻⁶ cm/s. It also gave a Papp B→A at 120 min [3] of 310 ×10⁻⁶ cm/s, a pKi (σ2) of at most 5.00 and a pKi (GABAA (BZP)) of at most 5.00. The pKi (β3) was at most 5.00, the “binding to glucocorticoid receptor NR3C1” value [8] was “No binding was detected” and the pKi (5-HT2b) was at most 5.00. The pKi (DAT) was at most 5.00, the pKi (H2) was at most 5.00 and the pKi (5-HT1d; K i, 5-HT1d, radioligand displacement (Table 1)) was 5.96. It also gave a pKi (5-HT1d; [12]) of 5.95, a pKi (SERT) of at most 5.00 and a pKi [4] of at most 5.00. The pKi (β2) was at most 5.00, the pKi (M3) was at most 5.00 and the pKi (5-HT6) was at most 5.00. The pKi (human NOP [5]) was 5.36.
